Legend:
Type in all cases: in vivo
cats = test: Coronary blood flow and haemodynamics in cats after intravenous administration; conditions: 3, 5, and 10 mg/kg intravenously
Text: The ability of the pharmaceutical composition for parenteral use comprising the active substance 1-adamantylethyloxy-3-morpholino-2-propanol or pharmaceutically acceptable salts thereof to improve myocardial perfusion indicates to appropriateness of its use in acute coronary syndrome.

[1] = tested on: rats with small-focus myocardial infarction; test: Experimental therapy of rats with small-focus myocardial infarction
Text: The ability of the pharmaceutical composition for parenteral use comprising the active substance 1-adamantylethyloxy-3-morpholino-2-propanol or pharmaceutically acceptable salts thereof allows its use for treatment of cardiomyopathies of various geneses (alcoholic, infectious, toxic, and metabolic).
This allows to use it for treatment of various forms of coronary artery disease, including unstable angina pectoris, stable rest and exertional angina pectoris, angina pectoris of intact vessels, acute coronary syndrome (including early postinfarction angina pectoris), myocardial infarction (large-focus and small-focus, repeated and recurrent) post resuscitation disease (state after emergency procedures), treatment and prevention of ischemic myocardial postreperfusion injuries after thrombolysis, stenting, balloon angioplasty, coronary vessels atheroctomy, postinfarction myocardiosclerosis, cardiomyopathies of various genesis (alcoholic, infectious-toxic, and metabolic), heart rhythm disorders, diabetic angiopathies and complications thereof.

[2] = tested on: rats with acute adrenal cardiomyopathy; test: Acute adrenal cardiomyopathy simulation in rats, preventive single administration; conditions: single doses of 15, 30, 50 and 100 mg/kg one hour before simulation
Text: This allows to use it for treatment of various forms of ischemic heart disease, including unstable angina pectoris, stable rest and exertional angina pectoris, angina pectoris of intact vessels, acute coronary syndrome (including early postinfarction angina pectoris), myocardial infarction (large-focus and small-focus, repeated and recurrent) post resuscitation disease (state after emergency procedures), and cardiomyopathies of various genesis (alcoholic, infectious-toxic, and metabolic).

[3] = 10 mg/kg once a day for 96 hours of ischemia

## OC(COCCC12CC3CC(CC(C3)C1)C2)CN1CCOCC1 (stereo not shown) [1-adamantylethyloxy-3-morpholino-2-propanol]
cats
  coronary blood flow: stimulates coronary blood flow
  hypotension: not accompanied by hypotension
  peripheral vasodilatation, venous inflow and cardiac output: not associated with peripheral vasodilatation, decreased of venous inflow and cardiac output
[1]; 10 mg/kg once a day for 96 hours
  bcl-2 antiapoptotic protein expression: promoted the increasing of bcl-2 antiapoptotic protein expression
[1]; [3]
  RNA content and transcriptional activity of cardiomyocytes: increasing of RNA content and transcriptional activity
  c-fos protein content in cardiomyocytes: promoted the increasing of c-fos protein content in cardiomyocytes
  cardiomyocytes nuclei density: retention of cardiomyocytes nuclei density
  percentage of necrotic cardiomyocytes: the percentage of necrotic cardiomyocytes is reduced
[1]; 3, 10, 20, 50 and 100 mg/kg once a day for 96 hours of ischemia
  manifestations of endothelial dysfunction and nitrosating stress: promoted to reduce manifestations of endothelial dysfunction and nitrosating stress
[2]
  mortality: promoted the reducing mortality in rats

Source: patent publication US9795609B2, “Pharmaceutical composition of 1-adamantylethyloxy-3-morpholino-2-propanol or pharmaceutically acceptable salts thereof for the treatment of cardiovascular disease” (priority 2012, dated 2017)
